This is an account of results in publication PMC4666006 (European journal of cancer (Oxford, England : 1990), 2013).

The conditions of data set [1]: cited from earlier work.
Data set [2] concerns patients with advanced renal cell cancer. The settings on record: ongoing randomised phase III trial; cited from earlier work.
Data set [3] relates to patients with advanced RCC. Conditions: cited from earlier work.
The nature of data set [4]: Pharmacokinetic assessments. It is filed as in vivo, patients. Conditions: for Tmax / AUC(0-t) / Cmax: human, serum.
For data set [5], the system named is patients with advanced RCC. Kind of data set: 3 + 3 dose-escalation: dose-limiting toxicities and recommended phase II dose. The class given is in vivo.
The subject of data set [6] is patients with advanced RCC. Kind of data set: Treatment-emergent adverse events. It is filed as in vivo. Conditions: all 27 patients.
The subject of data set [7] is patients with advanced RCC. The settings on record: phase III; cited from earlier work.
Another data set has as its system patients with RCC. The settings on record: cited from earlier work.

For orientation: Tmax means the time at which the peak concentration occurs. Regarding `COc1cc2nccc(Oc3ccc(NC(=O)Nc4cc(C)on4)c(Cl)c3)c2cc1OC` [tivozanib], in data set [1], the half-life was ~ 4.5 d. Moreover, in data set [2], the progression-free survival is listed as 11.9 months. Moreover, the “Hypertension, treatment-related event, patients” value in data set [3] (phase II, advanced RCC) is 45%. Moreover, in data set [3] (tivozanib monotherapy, phase II, advanced RCC), the “Fatigue, treatment-related event, patients” value is reported as 8%. Also, in data set [3] (tivozanib phase II trial), the “Grade 3 hypertension, patients” value is on record as 11% and the “Grade 4 hypertension, patients” value is listed as 1%. For the same compound, the Tmax in data set [4] (oral, […]) came to 17.3 h. The “Recommended phase II dose (RP2D), tivozanib” value in data set [5] (orally, 3 weeks on/1 week off, in combination with temsirolimus) is 1.5 mg/day. Besides, in data set [6], the “Patients with ≥1 dose reduction/interruption of the drug” value is 59%.
In general, AUC(0-t) refers to the area under the concentration-time curve up to a stated or last time point. High values mean more exposure, low ones less exposure. As usually defined, the Cmax is the peak of the concentration-time curve. Regarding `CO[C@H]1C[C@@H]2CC[C@@H](C)[C@@](O)(O2)C(=O)C(=O)N2CCCC[C@H]2C(=O)O[C@H]([C@H](C)C[C@@H]2CC[C@@H](OC(=O)C(C)(CO)CO)[C@H](OC)C2)CC(=O)[C@H](C)/C=C(\C)[C@@H](O)[C@@H](OC)C(=O)[C@H](C)C[C@H](C)/C=C/C=C/C=C/1C` [temsirolimus], the “Fatigue, temsirolimus-related TEAE” value in data set [7] is on record as 51%. In addition, in data set [4] (intravenous, 15 mg/week), the exposure AUC(0-t) is 3190 ng·h/mL, the Cmax is 164 ng/mL and the time of peak concentration (Tmax) amounted to 2.32 h. Further, in data set [4] (intravenous, 25 mg/week), the AUC(0-t) stood at 4240 ng·h/mL, the Cmax amounted to 200 ng/mL and the Tmax turned out to be 1.81 h. The “Recommended phase II dose (RP2D), temsirolimus” value in data set [5] (intravenously, in combination with tivozanib) is recorded as 25 mg/week. In addition, the “Patients with ≥1 dose reduction/interruption of the drug” value in data set [6] was 63%.
For `CO[C@H]1C[C@@H]2CC[C@@H](C)[C@@](O)(O2)C(=O)C(=O)N2CCCC[C@H]2C(=O)O[C@H]([C@H](C)C[C@@H]2CC[C@@H](O)[C@H](OC)C2)CC(=O)[C@H](C)/C=C(\C)[C@@H](O)[C@@H](OC)C(=O)[C@H](C)C[C@H](C)/C=C/C=C/C=C/1C` [Sirolimus, sirolimus], the “Ratio of sirolimus AUC0–last /temsirolimus AUC0–last, mean (SD)” value in data set [4] (day 22, Temsirolimus 15 mg/week) is recorded as 1.26 (0.67). For the same compound, the “Ratio of sirolimus AUC0–last /temsirolimus AUC0–last, mean (SD)” value in data set [4] (day 22, Temsirolimus 25 mg/week) was 1.48 (0.66). Further, in data set [4] (intravenous, 15 mg/week), the AUC(0-t) was 3560 ng·h/mL, the highest level (Cmax) was 51.3 ng/mL and the Tmax stood at 3.18 h. For the same compound, in data set [4] (intravenous, 25 mg/week), the exposure AUC(0-t) came to 6570 ng·h/mL, the peak level (Cmax) was 93.8 ng/mL and the Tmax came out at 1.81 h.
In the case of `CNC(=O)c1cc(Oc2ccc(NC(=O)Nc3ccc(Cl)c(C(F)(F)F)c3)cc2)ccn1` [sorafenib], in the data set with patients with RCC, the “Grade 3/4 hypertension, patients” value was 4–11% and the Incidence of hypertension is on record as 17–29%. The progression-free survival in data set [2] is listed as 9.1 months.
Take `CCN(CC)CCNC(=O)c1c(C)[nH]c(/C=C2\C(=O)Nc3ccc(F)cc32)c1C` [sunitinib]: in the data set with patients with RCC, the “Grade 3 hypertension, patients” value was 8%; the “Grade 4 hypertension, patients” value is listed as 0%; the Incidence of hypertension is 24%.
In the case of `CNC(=O)c1ccccc1Sc1ccc2c(/C=C/c3ccccn3)n[nH]c2c1` [axitinib], in the data set on patients with RCC, the “Grade 3/4 hypertension, patients” value is 16% and the Incidence of hypertension was 40%.
Consider `Cc1ccc(Nc2nccc(N(C)c3ccc4c(C)n(C)nc4c3)n2)cc1S(N)(=O)=O` [pazopanib], for which, in the data set with patients with RCC, the “Grade 3 hypertension, patients” value is given as 4%; the “Grade 4 hypertension, patients” value is given as 0%; the Incidence of hypertension is on record as 40%.
